The record followed here is PubChem BioAssay (NCI).

Common to all, as to test: DTP human tumour cell line panel, 48 h
Assay [1] concerns HCC-2998 colon.
Assay [2] concerns HCT-15 colon.
The test system of assay [3] is HL-60(TB) leukemia.
The subject of assay [4] is M14 melanoma.
In assay [5] the test system is NCI-H460 lung.
In assay [6] the test system is SR leukemia.
Assay [7] concerns MCF7 breast.
Assay [8] deals with MDA-MB-231 breast.
Assay [9] has as its system PC-3 prostate.
The test system of assay [10] is BT-549 breast.

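Method: 48-hour compound exposure of cells in 96-well plates, five concentrations, linear interpolation of endpoints. TGI: concentration producing complete growth inhibition.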

As a reminder, the TGI is the concentration giving total growth inhibition. A higher TGI goes with less potent growth arrest. Consider `OCCN1CCN2C=C(C3CCCC4N(CCO)CCN34)CCC21` (stereo unspecified), for which the concentration for total growth inhibition (TGI) is more than 100 µM in [1]; more than 100 µM in assay [2]; 24 µM in assay [3]; more than 100 µM in assay [4]; more than 100 µM in assay [5]; 26.3 µM in assay [6].
Regarding `Clc1ccc(-c2c(C3=NCCCN3)nnn2-c2ccccc2)cc1`, the TGI in assay [1] was more than 100 µM; in assay [2], more than 100 µM; in assay [3], 36.6 µM; in assay [4], more than 100 µM; in assay [5], more than 100 µM; in assay [6], more than 100 µM.
For `O=C(OCc1ccccc1)N(CCCCN(CCCNCc1ccccc1)C(=O)OCc1ccccc1)CCCNCc1ccccc1`, the TGI in [1] is 0.933 µM; in assay [2], 1.17 µM; in assay [3], 0.507 µM; in [7], more than 100 µM; in assay [8], 2.56 µM; in assay [5], 0.372 µM. Besides, the TGI in [9] was found to be 2.61 µM.
As to `CCOC(=O)c1c2c(c(O)c3ccccc3c(O)n(Cc3ccccc3)c1C)C(=O)C=CC2=O`, the TGI was more than 100 µM in [1]; more than 100 µM in assay [2]; more than 100 µM in assay [3]; more than 100 µM in assay [4]; 0.769 µM in assay [7]; more than 100 µM in [8]. The concentration for total growth inhibition (TGI) in assay [5], in [9] and in [6] was more than 100 µM each time.
Turning to `O=C(Nc1cccc2c1[nH]c1c(-c3ccccc3)nccc12)c1ccccc1[N+](=O)[O-]`, the TGI in assay [1] is more than 100 µM; in assay [2] it was 41.2 µM; in [3], more than 100 µM; in [4], more than 100 µM; in [5], 78.1 µM; in assay [6], more than 100 µM.
Take `Ic1cc2c(cc1C1SCCCS1)OCO2`: the concentration for total growth inhibition (TGI) in assay [1], in [2], in [3], in assay [4], in assay [5] and in assay [6] was more than 100 µM each time.
For `COc1ccc(C2CC3(c4ccccc4)ON=C(c4ccccc4)N3c3ccccc3S2)cc1` (stereo unspecified), the concentration for total growth inhibition (TGI) in [10], in assay [1], in [2], in assay [4], in assay [7] and in assay [8] was more than 100 µM throughout. Further, the TGI in assay [5] and in [9] was more than 100 µM each time.
With `O=c1[nH]c(=O)n(C2OC(CO)C(O)C2O)cc1Oc1ccccc1` (stereo unspecified), the concentration for total growth inhibition (TGI) in assay [1], in [2], in [3], in [4], in [7] and in assay [8] was more than 100 µM in each case. Further, the TGI in assay [5], in assay [9] and in assay [6] was more than 100 µM in each case.
Consider `C=CCOC(=O)C1=C(CCC[C@@H](C)O[Si](C)(C)C(C)(C)C)N=C(N)N2[C@H](CCO)CC[C@@H]12`, for which the concentration for total growth inhibition (TGI) in assay [10] is 36.5 µM; in [1], 35.5 µM; in assay [2] it was 32.5 µM; in [4], 27.6 µM; in assay [7] it was 25.7 µM; in assay [8] it was 29.6 µM. In addition, the TGI in assay [5] turned out to be 31.5 µM; in [9] it was 20.8 µM.
Take `O=c1cn[nH]c(=S)n1/N=C/c1c[nH]c2ccccc12`: the total growth inhibition concentration (TGI) in assay [10] is more than 100 µM; in assay [1] it was more than 100 µM; in assay [2], more than 100 µM; in assay [3] it was 49.5 µM; in [4], more than 100 µM; in assay [7], more than 100 µM. Also, the TGI in [5], in assay [9] and in assay [6] was more than 100 µM throughout.
Consider `COc1cccc(N(CN2C(=O)CCC2C(=O)O)C(C)=O)c1` (stereo unspecified), for which the TGI in [1], in assay [2], in [3], in assay [4], in assay [7] and in assay [8] was more than 100 µM in each case. The TGI in assay [5], in assay [9] and in [6] was more than 100 µM each time.
Regarding `COC(=O)C1=C(C)C=C(N2CCOCC2)C(C(=O)OC)C1c1ccccc1` (stereo unspecified), the TGI in assay [10], in assay [1], in assay [2], in assay [4], in [7] and in assay [8] was more than 10 µM each time. Besides, the TGI in assay [5] and in [9] was more than 10 µM throughout.
As to `COC1OC(COC(=O)c2cc(O)c(O)c(O)c2)C(OC(=O)c2cc(O)c(O)c(O)c2)C(OC(=O)c2cc(O)c(O)c(O)c2)C1OC(=O)c1cc(O)c(O)c(O)c1` (stereo unspecified), the TGI in [1] is more than 100 µM; in assay [2], more than 100 µM; in assay [3] it was 50.1 µM; in [4], 26.8 µM; in [7], more than 100 µM; in [8], more than 100 µM. In addition, the TGI in [5] was more than 100 µM; in assay [9], more than 100 µM; in assay [6] it was 36 µM.
As to `C=C[C@]1(C)CCC2=C(CCC3C2(C)CCC[C@@]3(C)COC(C)=O)C1` (stereo partly specified), the TGI in assay [1] is 31.8 µM; in assay [2] it was 30.8 µM; in assay [3], 36.4 µM; in [4], 40.3 µM; in assay [5] it was 32.2 µM; in assay [6], 35.8 µM.
On to `O=C(O)C12CCCCC1CCCC2` (stereo unspecified), for which the concentration for total growth inhibition (TGI) in assay [1], in [2], in [3], in assay [4] and in [5] was more than 100 µM throughout.
Consider `CCCCCC/C=C1\CCC(CN2CCOCC2)C1=O` (stereo unspecified), for which the concentration for total growth inhibition (TGI) in assay [1] is 35.3 µM; in [2], 25.9 µM; in [3], 15.7 µM; in [4] it was 28.1 µM; in assay [5], more than 66 µM; in assay [6], 13.6 µM.
Take `CCN(CC)Cc1c(/C=C\c2cc(OC)c(OC)c(OC)c2)ccc(OC)c1O`: the TGI in assay [10] was more than 82.2 µM; in assay [1] it was 20.4 µM; in assay [2], 34.8 µM; in assay [3], more than 60.8 µM; in assay [4] it was more than 59.1 µM; in [7] it was 99.4 µM. Moreover, the TGI was more than 100 µM in assay [8], more than 100 µM in assay [5] and more than 41.5 µM in assay [9].
